ChEMBL document CHEMBL5579845, “Ophiobolin A derivatives with enhanced activities under tumor-relevant acidic conditions” (2024)

Legend:
[1] = Antiproliferative activity against human GBM43 cells cultured under pH 6.5 assessed as reduction in cell viability by measuring growth inhibition incubated for 48 hrs by MTT assay; format: functional
[2] = Antiproliferative activity against human GBM43 cells cultured under pH 7.5 assessed as reduction in cell viability by measuring growth inhibition incubated for 48 hrs by MTT assay; format: functional
[3] = Potency index, ratio of ophiobolin A GI50 to test compound GI50 for antiproliferative activity against human GBM43 cells cultured under pH 6.5 assessed as reduction in cell viability by measuring growth inhibition incubated for 48 hrs by MTT assay; format: functional
[4] = tested on: U-87 MG; test: Antitumor activity against human U-87 MG cells stably expressing luciferase reporter xenografted in female athymic nude mouse assessed as median survival time at 24 mg/kg, iv administered for six times starting from day 12 post tumor development and measured upto 60 days post tumor development; format: functional, U-87MG ATCC; settings: time <= 48 day

CO[C@H]1O[C@@]2(OC)C[C@@](C)(O)[C@H]3C[C@@]4(C)CC[C@@]5(O[C@@H](C=C(C)C)C[C@@H]5C)[C@@H]4C/C=C/1[C@H]32
GI50 [1]: 500 nM

CC(C)=C[C@H]1C[C@H](C)[C@]2(CC[C@]3(C)C[C@H]4[C@H](C(=O)C[C@@]4(C)O)/C(=C/OCCCl)[C@H](O)C[C@H]32)O1
GI50 [1]: 650 nM | GI50 [2]: 1070 nM

CC(C)=C[C@H]1C[C@H](C)[C@]2(CC[C@]3(C)C[C@H]4[C@H](C(=O)C[C@@]4(C)O)/C(C(O)OCCBr)=C\C[C@H]32)O1 (some centres not stated)
RatioGI50 [3]: 2 | GI50 [1]: 150 nM | GI50 [2]: 270 nM

CC(C)=C[C@H]1C[C@H](C)[C@]2(CC[C@]3(C)C[C@H]4[C@H](C(=O)C[C@@]4(C)O)/C(C(O)OC(C)C)=C\C[C@H]32)O1 (some centres not stated)
GI50 [1]: 340 nM

COCCOC(O)/C1=C/C[C@@H]2[C@](C)(CC[C@@]23O[C@@H](C=C(C)C)C[C@@H]3C)C[C@H]2[C@@H]1C(=O)C[C@@]2(C)O (some centres not stated)
GI50 [1]: 1090 nM

CC(C)=C[C@H]1C[C@H](C)[C@]2(CC[C@]3(C)C[C@H]4[C@H](C(=O)C[C@@]4(C)O)/C(C(O)OCCF)=C\C[C@H]32)O1 (some centres not stated)
GI50 [1]: 1700 nM | GI50 [2]: 2890 nM

CC(C)=C[C@H]1C[C@H](C)[C@]2(CC[C@]3(C)C[C@H]4[C@H](C(=O)C[C@@]4(C)O)/C(=C/OCCF)[C@H](O)C[C@H]32)O1
GI50 [1]: 1500 nM | GI50 [2]: 2770 nM

CC(C)=C[C@H]1C[C@H](C)[C@]2(CC[C@]3(C)C[C@H]4[C@H](C(=O)C[C@@]4(C)O)/C(C(O)OCCCl)=C\C[C@H]32)O1 (some centres not stated)
GI50 [1]: 750 nM | GI50 [2]: 2770 nM

CC(C)=C[C@H]1C[C@H](C)[C@]2(CC[C@]3(C)C[C@H]4[C@H](C(=O)C[C@@]4(C)O)/C(=C/OCCBr)[C@H](O)C[C@H]32)O1
RatioGI50 [3]: 2 | GI50 [1]: 140 nM | GI50 [2]: 490 nM

CC(C)=C[C@H]1C[C@H](C)[C@]2(CC[C@]3(C)C[C@H]4[C@H](C(=O)C[C@@]4(C)O)/C(=C/OCC(F)(F)F)[C@H](O)C[C@H]32)O1
GI50 [1]: 830 nM

CO[C@@H]1O[C@@]2(OC)C[C@@](C)(O)[C@H]3C[C@@]4(C)CC[C@@]5(O[C@@H](C=C(C)C)C[C@@H]5C)[C@@H]4C/C=C/1[C@H]32
GI50 [1]: 1460 nM

COc1cccc2c1C(=O)c1c(O)c3c(c(O)c1C2=O)C[C@@](O)(/C(CO)=N/NC(=O)CCCCCN1C(=O)C=CC1=O)C[C@@H]3O[C@H]1C[C@H](N)[C@H](O)[C@H](C)O1 [ALDOXORUBICIN]
MST [4]: 62 days

CC(C)=C[C@H]1C[C@H](C)[C@]2(CC[C@]3(C)C[C@H]4[C@H](C(=O)C[C@@]4(C)O)/C(C=O)=C\C[C@H]32)O1 [OPHIOBOLIN A]
GI50 [1]: 290 nM | GI50 [2]: 220 nM
